Measurements: patent US8314143B2, “Synthetic flavonoids and pharmaceutical compositions and therapeutic methods of treatment of HIV infection and other pathologies” (Florida A&M University, priority 2006, dated 2012)
Several values for one entry are separate records, joined by “and”; a condition that tells them apart may be missing. Equal values may be shown once. Read-outs that look alike come from different tables or passages of the source.

Key:
Format in all cases: cell-based
[1] = test system: PC-3 cells; assay: Cytoxicity on PC-3 cells (drug inhibition, cell count); conditions: for Drug Inhibition on PC-3 cells: Table 7; for % Inhibition Mean / Cells (×10^4) Mean / % Inhibition / Cells (×10^4): Exp. Nov. 11 to Nov. 17, 2005; for % Inhibition / Cells (×10^4): single replicates
From the text: The purified and identified analogs were subjected to in vitro biological testing.

[2] = test system: H-9 cells; assay: Cytoxicity on H-9 cells (drug inhibition, cell count); conditions: for H-9 Mean (drug inhibition): Table 4 summary; for % Inhibition Mean / Cells (×10^4) Mean / % Inhibition / Cells (×10^4): Exp. Dec. 05 to Dec. 09, 2005; for % Inhibition / Cells (×10^4): single replicates
From the text: (§1) The purified and identified analogs were subjected to in vitro biological testing. […] These three congeners were further evaluated in H9 and PC3 cells. AZT was employed as a positive control in all of these experiments.

[3] = test system: MCF-7 cells; assay: Cytoxicity on MCF-7 cells (drug inhibition, cell count); design: Drug Inhibition on MCF-7 Cells / MCF-7 Mean (drug inhibition) / Drug inhibition on MCF-7 Cells Mean: unit not given here; conditions: for Drug Inhibition on MCF-7 Cells: Table 8 summary; for inhibition at 1 µg/mL / inhibition at 5 µg/mL / inhibition at 10 µg/mL / inhibition at 50 µg/mL: Homo sapiens, MCF7, MCF-7 cells
From the text: as §1

[4] = MCF-7 cells, 1 μg/ml, mean, Exp. Nov. 14 to Nov. 18, 2005
[5] = MCF-7 cells, 1 μg/ml, single replicates, Exp. Nov. 14 to Nov. 18, 2005
[6] = MCF-7 cells, 5 μg/ml, mean, Exp. Nov. 14 to Nov. 18, 2005
[7] = MCF-7 cells, 5 μg/ml, single replicates, Exp. Nov. 14 to Nov. 18, 2005
[8] = MCF-7 cells, 10 μg/ml, mean, Exp. Nov. 14 to Nov. 18, 2005
[9] = MCF-7 cells, 10 μg/ml, single replicates, Exp. Nov. 14 to Nov. 18, 2005
[10] = MCF-7 cells, 50 μg/ml, mean, Exp. Nov. 14 to Nov. 18, 2005
[11] = MCF-7 cells, 50 μg/ml, single replicates, Exp. Nov. 14 to Nov. 18, 2005

SMILES: COc1ccc(C=CC(=O)c2cc(C)cc([N+](=O)[O-])c2O)cc1OC [CHNM 2M]
- Drug Inhibition on PC-3 cells ([1]; 1 μg/ml): 27.9
- % Inhibition Mean ([1]; 1 μg/ml): 9.10%
- Cells (×10^4) Mean ([1]; 1 μg/ml): 89.08 ×10^4
- % Inhibition ([1]; 1 μg/ml): 9.69% and 17.09% and 0.51%
- Cells (×10^4) ([1]; 1 μg/ml): 88.5 ×10^4 and 81.3 ×10^4 and 97.5 ×10^4
- Drug Inhibition on PC-3 cells ([1]; 5 μg/ml): 39.36
- % Inhibition Mean ([1]; 5 μg/ml): 36.05%
- Cells (×10^4) Mean ([1]; 5 μg/ml): 62.67 ×10^4
- % Inhibition ([1]; 5 μg/ml): 39.29% and 36.99% and 31.89%
- Cells (×10^4) ([1]; 5 μg/ml): 59.5 ×10^4 and 61.8 ×10^4 and 66.8 ×10^4
- Drug Inhibition on PC-3 cells ([1]; 10 μg/ml): 45.03
- % Inhibition Mean ([1]; 10 μg/ml): 35.80%
- Cells (×10^4) Mean ([1]; 10 μg/ml): 62.92 ×10^4
- % Inhibition ([1]; 10 μg/ml): 36.22% and 38.52% and 32.65%
- Drug Inhibition on PC-3 cells ([1]; 50 μg/ml): 59.67
- % Inhibition Mean ([1]; 50 μg/ml): 48.81%
- Cells (×10^4) Mean ([1]; 50 μg/ml): 50.17 ×10^4
- % Inhibition ([1]; 50 μg/ml): 49.23% and 46.43% and 50.77%
- H-9 Mean (drug inhibition) ([2]; 1 μg/ml): −15.75
- % Inhibition Mean ([2]; 1 μg/ml): −15.75%
- Cells (×10^4) Mean ([2]; 1 μg/ml): 58.17 ×10^4
- % Inhibition ([2]; 1 μg/ml): −13.93% and −19.90% and −13.43%
- Cells (×10^4) ([2]; 1 μg/ml): 57.3 ×10^4 and 60.3 ×10^4 and 57.0 ×10^4
- H-9 Mean (drug inhibition) ([2]; 5 μg/ml): −16.58
- % Inhibition Mean ([2]; 5 μg/ml): −16.58%
- Cells (×10^4) Mean ([2]; 5 μg/ml): 58.58 ×10^4
- % Inhibition ([2]; 5 μg/ml): −22.39% and −10.45% and −16.92%
- Cells (×10^4) ([2]; 5 μg/ml): 61.5 ×10^4 and 55.5 ×10^4 and 58.8 ×10^4
- H-9 Mean (drug inhibition) ([2]; 10 μg/ml): −1
- % Inhibition Mean ([2]; 10 μg/ml): −1.00%
- Cells (×10^4) Mean ([2]; 10 μg/ml): 50.75 ×10^4
- % Inhibition ([2]; 10 μg/ml): −0.50% and −3.98% and 1.49%
- Cells (×10^4) ([2]; 10 μg/ml): 50.5 ×10^4 and 52.3 ×10^4 and 49.5 ×10^4
- H-9 Mean (drug inhibition) ([2]; 50 μg/ml): −11.44
- % Inhibition Mean ([2]; 50 μg/ml): −11.44%
- Cells (×10^4) Mean ([2]; 50 μg/ml): 56.00 ×10^4
- % Inhibition ([2]; 50 μg/ml): −12.94% and −8.96% and −12.44%
- Cells (×10^4) ([2]; 50 μg/ml): 56.8 ×10^4 and 54.8 ×10^4 and 56.5 ×10^4
- Drug Inhibition on MCF-7 Cells ([3]; MCF-7 cells, 1 μg/ml): 6.77
- % Inhibition Mean [3, 4]: 6.77%
- Cells (×10^4) Mean [3, 4]: 53.92 ×10^4
- % Inhibition [3, 5]: 8.36% and 4.47% and 7.49%
- Cells (×10^4) [3, 5]: 53.0 ×10^4 and 55.3 ×10^4 and 53.5 ×10^4
- Drug Inhibition on MCF-7 Cells ([3]; MCF-7 cells, 5 μg/ml): 20.17
- % Inhibition Mean [3, 6]: 20.17%
- Cells (×10^4) Mean [3, 6]: 46.17 ×10^4
- % Inhibition [3, 7]: 21.33% and 22.19% and 17.00%
- Cells (×10^4) [3, 7]: 45.5 ×10^4 and 45.0 ×10^4 and 48.0 ×10^4
- Drug Inhibition on MCF-7 Cells ([3]; MCF-7 cells, 10 μg/ml): 31.27
- % Inhibition Mean [3, 8]: 31.27%
- Cells (×10^4) Mean [3, 8]: 39.75 ×10^4
- % Inhibition [3, 9]: 29.97% and 32.56% and 31.27%
- Cells (×10^4) [3, 9]: 40.5 ×10^4 and 39.0 ×10^4 and 39.8 ×10^4
- Drug Inhibition on MCF-7 Cells ([3]; MCF-7 cells, 50 μg/ml): 42.07
- % Inhibition Mean [3, 10]: 42.07%
- Cells (×10^4) Mean [3, 10]: 33.50 ×10^4
- % Inhibition [3, 11]: 43.80% and 40.35% and 42.07%
- Cells (×10^4) [3, 11]: 32.5 ×10^4 and 34.5 ×10^4 and 33.5 ×10^4

SMILES: COc1cc(C=CC(=O)c2cc(C)cc([N+](=O)[O-])c2O)cc(OC)c1OC [CHNM 3M]
- inhibitory activity compared to AZT ([1]; same conditions as AZT): much superior inhibitory activities
- inhibitory activity compared to AZT ([2]; same conditions as AZT): much superior inhibitory activities
- inhibition at 1 µg/mL ([3]; drug 1 μg/ml, mean of replicates, vs 2% DMSO, read-out: % Inhibition Mean): 12.6%
- inhibition at 1 µg/mL ([3]; drug 1 μg/ml, single replicate, vs 2% DMSO, read-out: % Inhibition): 13.1%
- inhibition at 5 µg/mL ([3]; drug 5 μg/ml, mean of replicates, vs 2% DMSO, read-out: % Inhibition Mean): 51.4%
- inhibition at 5 µg/mL ([3]; drug 5 μg/ml, single replicate, vs 2% DMSO, read-out: % Inhibition): 49.4%
- inhibition at 10 µg/mL ([3]; drug 10 μg/ml, mean of replicates, vs 2% DMSO, read-out: % Inhibition Mean): 90.3%
- inhibition at 10 µg/mL ([3]; drug 10 μg/ml, single replicate, vs 2% DMSO, read-out: % Inhibition): 90.2%
- inhibition at 50 µg/mL ([3]; drug 50 μg/ml, mean of replicates, vs 2% DMSO, read-out: % Inhibition Mean): 96.6%
- inhibition at 50 µg/mL ([3]; drug 50 μg/ml, single replicate, vs 2% DMSO, read-out: % Inhibition): 96.6%
- response to MCF-7 cells in the different drug concentrations ([3]; MCF-7 cells): good activities
- Cells (×10^4) Mean ([3]; MCF-7 cells, drug 1 μg/ml, mean of replicates): 44.50 ×10^4
- Cells (×10^4) ([3]; MCF-7 cells, drug 1 μg/ml, single replicate count): 44.3 ×10^4 (2×) and 45.0 ×10^4
- % Inhibition ([3]; MCF-7 cells, drug 1 μg/ml, single replicate, vs 2% DMSO): 11.62%
- Cells (×10^4) Mean ([3]; MCF-7 cells, drug 5 μg/ml, mean of replicates): 24.75 ×10^4
- Cells (×10^4) ([3]; MCF-7 cells, drug 5 μg/ml, single replicate count): 25.8 ×10^4 and 24.0 ×10^4 and 24.5 ×10^4
- % Inhibition ([3]; MCF-7 cells, drug 5 μg/ml, single replicate, vs 2% DMSO): 52.86% and 51.88%
- Cells (×10^4) Mean ([3]; MCF-7 cells, drug 10 μg/ml, mean of replicates): 4.92 ×10^4
- Cells (×10^4) ([3]; MCF-7 cells, drug 10 μg/ml, single replicate count): 5.0 ×10^4 (2×) and 4.8 ×10^4
- % Inhibition ([3]; MCF-7 cells, drug 10 μg/ml, single replicate, vs 2% DMSO): 90.67%
- Cells (×10^4) Mean ([3]; MCF-7 cells, drug 50 μg/ml, mean of replicates): 1.75 ×10^4
- Cells (×10^4) ([3]; MCF-7 cells, drug 50 μg/ml, single replicate count): 1.8 ×10^4 and 2.0 ×10^4 and 1.5 ×10^4
- % Inhibition ([3]; MCF-7 cells, drug 50 μg/ml, single replicate, vs 2% DMSO): 96.07% and 97.05%
- inhibitory activity compared to AZT ([3]; MCF-7 cells, same conditions as AZT): much superior inhibitory activities
